The values below are quoted from earlier work in US20170014414A1, “PHARMACEUTICAL COMPOSITION” (ratiopharm GmbH, priority 2014, published 2017).

The conditions of the data set: teaching of WO 2012/088033.

In the case of `CC(=O)Nc1cccc(-n2c(=O)n(C3CC3)c(=O)c3c(Nc4ccc(I)cc4F)n(C)c(=O)c(C)c32)c1` [trametinib in its non-solvated form, N-{3-[3-cyclopropyl-5-(2-fluoro-4-iodophenylamino)-6,8-dimethyl-2,4,7-trioxo-3,4,6,7-tetrahydro-2H-pyrido[4,3-d]pyrimidin-1-yl]phenyl}acetamide], the “solubility compared with trametinib DMSO solvate” value was “much less soluble than trametinib DMSO solvate”.

Consider `CC(=O)Nc1cccc(-n2c(=O)n(C3CC3)c(=O)c3c(Nc4ccc(I)cc4F)n(C)c(=O)c(C)c32)c1.C[S+](C)[O-]` [trametinib DMSO solvate], for which the photostability result is “can suffer from photo-instability”. Under “during the formulation process”, the “stability of the solvate on exposure to moisture” value is listed as “revert to an insoluble desolvated form when exposed to moisture”.
